Consider eight compounds from PubChem BioAssay (NCI).

Some test systems named below: NCI-H23 lung; K-562 leukemia; SNB-19 CNS; HCT-15 colon; SW-620 colon; IGROV1 ovarian; DU-145 prostate; SK-MEL-2 melanoma; LOX IMVI melanoma; OVCAR-4 ovarian.
Assay in all cases: growth of human tumour cells (NCI), 48 h

Molecules are shown by their SMILES.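 Cells were grown in 96-well plates and exposed to each compound for 48 hours at five concentrations; endpoints were interpolated linearly between bracketing concentrations, or set to the highest concentration if not reached. GI50 marks 50% less growth. At the TGI there is no net growth.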

In the case of `Nc1nc2c(s1)CCc1c-2c(Br)n(Cc2ccccc2)c1Br`, the GI50 is 13.8 µM with NCI-H23 lung; 3.55 µM in the assay on K-562 leukemia; 23.3 µM in the assay with SNB-19 CNS; 3.98 µM in the assay on HCT-15 colon; 3.31 µM with SW-620 colon; 14.1 µM with IGROV1 ovarian. For the same compound, the GI50 is 16.1 µM in the assay on DU-145 prostate, 21.6 µM in the assay on SK-MEL-2 melanoma and 3.98 µM in the assay with LOX IMVI melanoma. The TGI with NCI-H23 lung turned out to be 40.8 µM; in the assay on K-562 leukemia it was 19.3 µM; in the assay on SNB-19 CNS, 86.4 µM; in the assay with HCT-15 colon, 15.9 µM; in the assay on SW-620 colon, 9.74 µM; in the assay with IGROV1 ovarian it was 37.5 µM. In addition, the TGI worked out at 37.3 µM with DU-145 prostate, 43.4 µM in the assay with SK-MEL-2 melanoma and 19.7 µM in the assay on LOX IMVI melanoma.
`O=C(CN(/C=C/C(=O)C(F)(F)F)c1ccc(Cl)cc1)c1ccccc1`: the GI50 in the assay on NCI-H23 lung was 8.75 µM; in the assay on K-562 leukemia it was 2.8 µM; in the assay with SNB-19 CNS, 33 µM; in the assay with HCT-15 colon it was 15.1 µM; with SW-620 colon, 14.6 µM; in the assay with IGROV1 ovarian, 0.303 µM. The results for the GI50 in the assay with DU-145 prostate, in the assay with SK-MEL-2 melanoma and in the assay on LOX IMVI melanoma were 18 µM, 15.5 µM and 5.26 µM, respectively. Also, the TGI was 27.2 µM in the assay with NCI-H23 lung; above 100 µM in the assay on K-562 leukemia; above 100 µM with SNB-19 CNS; 38.7 µM in the assay with HCT-15 colon; 62.1 µM in the assay on SW-620 colon; 24.3 µM with IGROV1 ovarian. The TGI in the assay on DU-145 prostate is 43.4 µM; in the assay on SK-MEL-2 melanoma it was 35.6 µM; in the assay on LOX IMVI melanoma it was 22.3 µM.
As to `COc1ccc2c(CN3CCC(C(=O)O)CC3)cc3cc4c(cc3c2c1)OCO4`, the GI50 was 2.53 µM in the assay with NCI-H23 lung; 4.15 µM with OVCAR-4 ovarian; 2.66 µM in the assay with K-562 leukemia; 3.35 µM with SNB-19 CNS; 2.76 µM in the assay on HCT-15 colon; 2.51 µM in the assay with SW-620 colon. The GI50 in the assay with DU-145 prostate is 3.87 µM; with SK-MEL-2 melanoma, 1.48 µM; in the assay on LOX IMVI melanoma it was 1.9 µM. For the same compound, the TGI in the assay with NCI-H23 lung was 8.9 µM; in the assay with OVCAR-4 ovarian it was above 100 µM; in the assay on K-562 leukemia, 11.3 µM; in the assay with SNB-19 CNS it was 22.6 µM; in the assay on HCT-15 colon, 16.7 µM; in the assay on SW-620 colon, 39.4 µM. The figures for the TGI in the assay with DU-145 prostate, in the assay with SK-MEL-2 melanoma and in the assay with LOX IMVI melanoma were above 100 µM, 3 µM and 9.37 µM, respectively.
For `O=C1c2nsnc2C(=O)c2c(F)c(F)c(F)c(F)c21`, the GI50 with K-562 leukemia was 0.238 µM; in the assay with SNB-19 CNS, 1.2 µM; with HCT-15 colon, 0.495 µM; in the assay on SW-620 colon, 0.172 µM; in the assay with IGROV1 ovarian, 1.52 µM; with DU-145 prostate, 1.32 µM. Besides, the figures for the GI50 with SK-MEL-2 melanoma and in the assay on LOX IMVI melanoma were 2.17 µM and 0.494 µM, respectively. Further, the TGI was determined as 1.01 µM in the assay on K-562 leukemia; 2.56 µM with SNB-19 CNS; 2 µM in the assay with HCT-15 colon; 0.348 µM with SW-620 colon; 5.07 µM in the assay on IGROV1 ovarian; 2.63 µM with DU-145 prostate. Moreover, the figures for the TGI with SK-MEL-2 melanoma and in the assay on LOX IMVI melanoma were 4.81 µM and 1.83 µM, respectively.
For the compound `Clc1cccc(Cl)c1C1CSc2ccccc2N=C1c1ccccc1` (configuration not stated), the GI50 was 13.1 µM in the assay on NCI-H23 lung; 3.11 µM with OVCAR-4 ovarian; 11.5 µM with SNB-19 CNS; 1.66 µM in the assay on HCT-15 colon; 2.34 µM in the assay with SW-620 colon; 3.13 µM in the assay with IGROV1 ovarian. Further, the GI50 in the assay with DU-145 prostate was 5.74 µM; in the assay on SK-MEL-2 melanoma it was 11.2 µM; with LOX IMVI melanoma, 1.75 µM. For the same compound, the TGI came out at 31.4 µM in the assay with NCI-H23 lung; 16 µM in the assay on OVCAR-4 ovarian; 24.6 µM in the assay with SNB-19 CNS; 3.98 µM with HCT-15 colon; 5.64 µM with SW-620 colon; 11.8 µM with IGROV1 ovarian. For the same compound, the TGI with DU-145 prostate came out at 18.3 µM; in the assay on SK-MEL-2 melanoma, 24.3 µM; in the assay with LOX IMVI melanoma, 4.03 µM.
As for `O=C1Nc2c(C(F)(F)F)cccc2[C@@]1(c1ccc(O)cc1)c1ccc(OC(F)(F)F)cc1`, the GI50 with NCI-H23 lung was below 0.01 µM; with OVCAR-4 ovarian, below 0.01 µM; in the assay on K-562 leukemia, 0.183 µM; with SNB-19 CNS it was 0.0285 µM; in the assay on SW-620 colon it was 14.1 µM; in the assay with IGROV1 ovarian, below 0.01 µM. The GI50 with DU-145 prostate is 0.0303 µM; in the assay on SK-MEL-2 melanoma, 0.0194 µM; with LOX IMVI melanoma, below 0.01 µM. Moreover, the TGI in the assay on NCI-H23 lung was below 0.0135 µM; with OVCAR-4 ovarian, below 0.01 µM; in the assay with K-562 leukemia, 20.7 µM; in the assay with SNB-19 CNS it was 0.0974 µM; with SW-620 colon, 28.6 µM; in the assay with IGROV1 ovarian, 0.0417 µM. The figures for the TGI with DU-145 prostate, in the assay on SK-MEL-2 melanoma and with LOX IMVI melanoma were 0.0866 µM, 0.0515 µM and below 0.0137 µM, respectively.
With `Cl.Fc1c[c-]c(-c2ccccn2)c(F)c1.[Pt].c1ccc(P(c2ccccc2)C([PH+](c2ccccc2)c2ccccc2)[PH+](c2ccccc2)c2ccccc2)cc1`, the GI50 is 3.06 µM in the assay with NCI-H23 lung; 2.44 µM with K-562 leukemia; 4.88 µM with SNB-19 CNS; 6.88 µM in the assay on HCT-15 colon; 3.19 µM with SW-620 colon; 3.16 µM in the assay with IGROV1 ovarian. The GI50 with DU-145 prostate is 3.57 µM; in the assay on SK-MEL-2 melanoma, 2.54 µM; in the assay with LOX IMVI melanoma, 3.35 µM. Also, the TGI is 61.1 µM in the assay on NCI-H23 lung; above 100 µM in the assay on K-562 leukemia; above 100 µM in the assay with SNB-19 CNS; above 100 µM in the assay on HCT-15 colon; 14.6 µM with SW-620 colon; above 100 µM in the assay on IGROV1 ovarian. In addition, the TGI in the assay on DU-145 prostate is 20.1 µM; with SK-MEL-2 melanoma it was 6.7 µM; in the assay on LOX IMVI melanoma it was 13.5 µM.
Consider `CCCCCCCCCCCCCC1=NCCN1CCO`, for which the GI50 with NCI-H23 lung is 8.61 µM; in the assay on OVCAR-4 ovarian, 7.23 µM; in the assay with K-562 leukemia, 3.04 µM; in the assay with SNB-19 CNS it was 9.59 µM; in the assay with HCT-15 colon, 1.92 µM; in the assay on SW-620 colon, 2.25 µM. For the same compound, the values for the GI50 in the assay on IGROV1 ovarian, in the assay with DU-145 prostate and with SK-MEL-2 melanoma were 4.46 µM, 3.88 µM and 2.86 µM, respectively. Further, the TGI in the assay with NCI-H23 lung is 31.7 µM; with OVCAR-4 ovarian, 39.8 µM; in the assay with K-562 leukemia, above 100 µM; in the assay with SNB-19 CNS, 26.8 µM; in the assay on HCT-15 colon, 4.77 µM; with SW-620 colon it was 5.22 µM. Besides, the TGI is above 100 µM in the assay with IGROV1 ovarian, 15.7 µM in the assay with DU-145 prostate and 9.01 µM in the assay with SK-MEL-2 melanoma.
